From patent publication US9283222B2 (priority 2006, dated 2016)
Where two headings read alike, the source gives them in different places.

Legend:
PARP in C41 cells [1] = target: T1, PARP in C41 cells (Homo sapiens (Human), UniProt P09874); assay: cell-based
[2] = target: Recombinant Human Poly(ADP-Ribose) Polymerase (PARP), PARP-1 (Homo sapiens (Human), UniProt P09874); settings: read-out: PARP-1 (Ki)
PARP in C41 cells [3] = target: T1, PARP in C41 cells
[4] = Table 3, H analogs versus para-F analogs
[5] = Table 3, C41 cells, ratio to comparator EC50
[6] = Table 2, A2 is C1-alkyl versus no A2 (bond)

Chain of Recombinant Human Poly(ADP-Ribose) Polymerase (PARP), PARP-1 (P09874 whole entry): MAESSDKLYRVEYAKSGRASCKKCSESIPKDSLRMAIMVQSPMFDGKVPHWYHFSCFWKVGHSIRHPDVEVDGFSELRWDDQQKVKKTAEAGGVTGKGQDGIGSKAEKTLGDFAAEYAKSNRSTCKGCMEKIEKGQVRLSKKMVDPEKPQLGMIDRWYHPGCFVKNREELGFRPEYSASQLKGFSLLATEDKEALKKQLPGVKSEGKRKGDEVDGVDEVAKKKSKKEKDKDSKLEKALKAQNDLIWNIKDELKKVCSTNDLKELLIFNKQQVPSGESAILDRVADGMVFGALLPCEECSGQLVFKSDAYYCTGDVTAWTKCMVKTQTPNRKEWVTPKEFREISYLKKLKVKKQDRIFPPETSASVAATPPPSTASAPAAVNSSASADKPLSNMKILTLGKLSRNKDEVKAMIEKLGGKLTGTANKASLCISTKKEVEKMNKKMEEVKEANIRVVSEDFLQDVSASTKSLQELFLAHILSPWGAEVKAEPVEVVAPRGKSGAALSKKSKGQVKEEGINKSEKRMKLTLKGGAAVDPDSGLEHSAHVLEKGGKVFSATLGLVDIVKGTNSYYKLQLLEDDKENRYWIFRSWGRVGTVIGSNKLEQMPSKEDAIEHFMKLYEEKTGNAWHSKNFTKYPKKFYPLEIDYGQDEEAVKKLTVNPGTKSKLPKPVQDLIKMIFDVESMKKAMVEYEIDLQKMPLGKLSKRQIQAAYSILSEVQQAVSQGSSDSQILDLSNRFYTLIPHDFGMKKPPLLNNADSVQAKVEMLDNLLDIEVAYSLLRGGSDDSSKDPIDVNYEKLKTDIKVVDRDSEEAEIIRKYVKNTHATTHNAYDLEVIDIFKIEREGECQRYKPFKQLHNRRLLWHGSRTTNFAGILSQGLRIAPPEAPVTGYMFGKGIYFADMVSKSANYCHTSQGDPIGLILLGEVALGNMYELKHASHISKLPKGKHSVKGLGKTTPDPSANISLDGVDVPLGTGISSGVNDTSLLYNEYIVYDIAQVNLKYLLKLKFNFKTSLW
T1 sequence (P09874 whole entry): as above

SMILES	Ki [2, 4]	Cell EC50 ratio (PARP in C41 cells [3]; [5])	other results
CCCN1CCC(c2nc3cccc(C(N)=O)c3[nH]2)CC1	–	–	EC50 (PARP in C41 cells [1]; EC50 generally ranged, range over all assays): 1 to 13 nM; EC50 (PARP in C41 cells [1]; mean EC50 for all assays carried out, n=270): 3.2 nM
CN(C)CCN(C)C(=O)c1cc(Cc2n[nH]c(=O)c3c2CCCC3)ccc1F [drawing 53]	3.6 nM	0.7	–
Cc1c(C(=O)Nc2cc(Cc3n[nH]c(=O)c4c3CCCC4)ccc2F)cnn1-c1ccccc1 [drawing 23]	15.8 nM	17.6	–
O=C(c1cccc(Cc2n[nH]c(=O)c3c2CCCC3)c1)N1CCN(c2ncccn2)CC1 [drawing 26]	0.8 nM	0.93	–
O=C(c1cc(Cc2n[nH]c(=O)c3c2CCCC3)ccc1F)N1CCN(c2ccccc2Cl)CC1 [drawing 37]	5 nM	6	–
O=C(c1cc(Cc2n[nH]c(=O)c3c2CCCC3)ccc1F)N1CCC(O)CC1 [drawing 47]	1.3 nM	2	–
O=C(CCCC(=O)Nc1cccc(Cc2n[nH]c(=O)c3c2CCCC3)c1)Nc1ccccc1 [drawing 20]	3.2 nM	3.2	–
CN1CCN(CCNC(=O)c2cc(Cc3n[nH]c(=O)c4c3CCCC4)ccc2F)CC1 [drawing 55]	1.1 nM	0.6	–
CN1CCCN(C(=O)c2cc(Cc3n[nH]c(=O)c4c3CCCC4)ccc2F)CC1 [drawing 43]	1.5 nM	–	Cell EC50 ratio (PARP in C41 cells [3]): 0.6
O=C(c1cccc(Cc2n[nH]c(=O)c3c2CCCC3)c1)N1CCC(O)CC1 [drawing 46]	5 nM	13	–
O=C(c1cc(Cc2n[nH]c(=O)c3c2CCCC3)ccc1F)N1CCN(c2ccccc2)CC1 [drawing 35]	3 nM	0.9	–
O=C1CCC(=O)N1c1cc(Cc2n[nH]c(=O)c3c2CCCC3)ccc1F	1.1 nM	0.19	–
O=C(Nc1cc(Cc2n[nH]c(=O)c3c2CCCC3)ccc1F)C1CNC1	0.7 nM	–	Cell EC50 ratio (PARP in C41 cells [3]): 34.4
CC(=O)N1CCN(C(=O)c2cccc(Cc3n[nH]c(=O)c4c3CCCC4)c2)CC1 [drawing 28]	3 nM	–	Cell EC50 ratio (PARP in C41 cells [3]): 6.1
CCN1CCN(C(=O)c2cc(Cc3n[nH]c(=O)c4c3CCCC4)ccc2F)CC1 [drawing 31]	1.8 nM	0.4	–
NCC(=O)Nc1cc(Cc2n[nH]c(=O)c3c2CCCC3)ccc1F	2.9 nM	–	Cell EC50 ratio (PARP in C41 cells [3]): 5.8
O=C(c1cc(Cc2n[nH]c(=O)c3c2CCCC3)ccc1F)N1CCN(c2ncccn2)CC1 [drawing 27]	0.7 nM	0.3	–
O=C1CCN1c1cc(Cc2n[nH]c(=O)c3c2CCCC3)ccc1F	–	–	Ki [2, 6]: 6 nM; Cell Ratio EC50 (PARP in C41 cells [3]; Table 2, C41 cells, ratio to comparator EC50): 16.4
O=C(CCN1CCCCC1)Nc1cc(Cc2n[nH]c(=O)c3c2CCCC3)ccc1F	18.4 nM	–	Cell EC50 ratio (PARP in C41 cells [3]): 5.6
O=C(c1cccc(Cc2n[nH]c(=O)c3c2CCCC3)c1)N1CCN(c2ccc(F)cc2)CC1 [drawing 40]	6 nM	2.2	–
O=C(c1cccc(Cc2n[nH]c(=O)c3c2CCCC3)c1)N1CCN(c2ccccc2Cl)CC1 [drawing 36]	10 nM	15	–
NC(=O)C1CCN(C(=O)c2cccc(Cc3n[nH]c(=O)c4c3CCCC4)c2)CC1 [drawing 48]	5 nM	215	–
O=C1CCCN1c1cc(Cc2n[nH]c(=O)c3c2CCCC3)ccc1F [drawing 7]	–	–	Ki [2, 6]: 1.2 nM; Cell Ratio EC50 (PARP in C41 cells [3]): 0.85
